# From publication PMC4871512, “Drug-Based Lead Discovery: The Novel Ablative Antiretroviral Profile of Deferiprone in HIV-1-Infected Cells and in HIV-Infected Treatment-Naive Subjects of a Double-Blind, Placebo-Controlled, Randomized Exploratory Trial” (PLoS ONE, 2016)
# Columns and labels:
# [1] = test system: HIV-1 DNA; assay: HIV-1 DNA (Roche Amplicor HIV-1 DNA Test) in isolate-infected primary cell cultures; assay type: cell-based; conditions: 200 μM deferiprone
# Procedure: Cell-free supernatants were used for p24 and HIV-1 RNA measurements. p24 core antigen in the supernatant was quantified by ELISA (Retrotek HIV-1 p24®; ZeptoMetrix Corp.; Buffalo, NY). HIV-1 RNA copy number in the supernatant of PBMC cultures and in plasma of trial subjects enrolled in the exploratory deferiprone trial was determined with a PCR-based and FDA-approved assay (Amplicor HIV-1 Monitor®; Roche Diagnostics Corp.; Indianapolis, IN). For clinical samples, the assay was used per the Standard Specimen Processing Procedure (sensitivity limit 400 copies/ml); for cell culture samples, the assay was used in both the Standard Specimen Processing and the UltraSensitive Specimen Processing Procedure (sensitivity limit 50 copies/ml). If not specified further, the term “log10” designates the amount of HIV-1 RNA in the dimensions [log10 / ml]. […] Results are shown per the assay’s optical readings of a chromogenic reaction that relates absorbance at 450 nm to the HIV-1 DNA copy number and is calibrated by assay-internal copy controls (A450 < 0.350, HIV-1 DNA absent; A450 ≥ 3.0, HIV-1 DNA present in excess of 20 copies; A450 between 0.350 and 3.0, HIV-1 DNA copy number per copy controls). Apoptotic DNA fragmentation was quantified flow-cytometrically, using a terminal deoxynucleotide transferase dUTP nick end-labeling (TUNEL) assay (APO-BRDU™; Phoenix Flow Systems; San Diego, CA). […]
# [2] = test system: HIV-infected peripheral blood mononuclear cells; assay: Apoptotic DNA fragmentation by TUNEL in single-donor non-replenished PBMC cultures; assay type: cell-based, human; conditions: 200 μM deferiprone
# Procedure: Fig 2 Effect of deferiprone in HIV-infected primary cells: Apoptotic DNA fragmentation, deoxyhypusyl-eIF5A accumulation, and DOHH activity. Apoptotic DNA fragmentation (Panel A) was detected by terminal deoxynucleotide transferase dUTP nick end labeling (TUNEL) of single-donor peripheral blood mononuclear cells, maintained in short-term non-replenished cultures as described. Cells were left uninfected and/or untreated; or infected immediately after plating with clinical HIV-1 isolate and 12 hours after infection, treated with 200 μM deferiprone. […] The dose-effect curve for inhibition of cellular DOHH by increasing deferiprone concentrations in short-term non-replenished single-donor cultures (Panel C) was calculated from the accumulation of its ^3H-labeled substrate and the decrease of its ^3H-labeled product; error bars are at the size of the graph symbols and not shown. […]
# Cell-free supernatants were used for p24 and HIV-1 RNA measurements. p24 core antigen in the supernatant was quantified by ELISA (Retrotek HIV-1 p24®; ZeptoMetrix Corp.; Buffalo, NY). HIV-1 RNA copy number in the supernatant of PBMC cultures and in plasma of trial subjects enrolled in the exploratory deferiprone trial was determined with a PCR-based and FDA-approved assay (Amplicor HIV-1 Monitor®; Roche Diagnostics Corp.; Indianapolis, IN). […]
# [3] = target: T1, deoxyhypusyl hydroxylase (DOHH) (Homo sapiens, UniProt Q9BU89); assay: Cellular DOHH activity by metabolic labeling of deoxyhypusyl-eIF5A and hypusyl-eIF5A with (1,8-3H)spermidine; assay type: cell-based
# T1 construct: endogenous in cells; host or cells: single-donor primary peripheral blood mononuclear cells (PBMCs), uninfected or infected with a clinical HIV-1 isolate
# T1 sequence (Q9BU89 1-302): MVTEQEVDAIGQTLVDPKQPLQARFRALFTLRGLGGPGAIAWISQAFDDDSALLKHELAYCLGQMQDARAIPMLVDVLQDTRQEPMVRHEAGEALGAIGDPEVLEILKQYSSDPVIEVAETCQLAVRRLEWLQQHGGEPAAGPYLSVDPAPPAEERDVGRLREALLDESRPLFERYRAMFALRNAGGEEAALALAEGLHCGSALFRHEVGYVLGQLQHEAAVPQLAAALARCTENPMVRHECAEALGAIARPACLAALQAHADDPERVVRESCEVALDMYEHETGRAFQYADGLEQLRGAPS
# Procedure: Fig 2 Effect of deferiprone in HIV-infected primary cells: Apoptotic DNA fragmentation, deoxyhypusyl-eIF5A accumulation, and DOHH activity. Apoptotic DNA fragmentation (Panel A) was detected by terminal deoxynucleotide transferase dUTP nick end labeling (TUNEL) of single-donor peripheral blood mononuclear cells, maintained in short-term non-replenished cultures as described. Cells were left uninfected and/or untreated; or infected immediately after plating with clinical HIV-1 isolate and 12 hours after infection, treated with 200 μM deferiprone. […] The dose-effect curve for inhibition of cellular DOHH by increasing deferiprone concentrations in short-term non-replenished single-donor cultures (Panel C) was calculated from the accumulation of its ^3H-labeled substrate and the decrease of its ^3H-labeled product; error bars are at the size of the graph symbols and not shown. Black, HIV-infected untreated cells; green, uninfected untreated cells; blue, uninfected deferiprone-treated cells; red, HIV-infected deferiprone-treated cells; large triangles, HIV-infected cells (red) or uninfected cells (blue) treated with 200 μM deferiprone.
# Metabolic labeling with (1,8-^3H)spermidine at 5 μCi/ml for 18 hours was performed as described in primary cell cultures of the same volume, viability by dye exclusion, cell number, and donor origin. Following acid hydrolysis of each sample for release of radiolabeled hypusine and deoxyhypusine, separation by ion-exchange chromatography, and liquid scintillation measurement of incorporated label, 18 fractions were collected and the counts in the eluted fractions were proportionally adjusted to a total of 10,000 cpm per sample. This normalization adjusts for variances in the radioactivity of different samples and allows direct comparison of their hypusine-deoxyhypusine elution profiles. Only the hypusine- / deoxyhypusine-containing fractions (6 through 14) were used for analysis.
# [4] = test system: HIV-infected cell lines and HIV-infected primary cells; conditions: cited from earlier work
smiles,measurement,setting,value
"Cc1c(O)c(=O)ccn1C [deferiprone, 3-hydroxy-1,2-dimethylpyridin-4-one]",decline of HIV-1 DNA,[1],reached the lower limit of detectability
same,final A450 readings of the HIV-1 DNA test,[1]; 10 days off-drug,negative for the continued presence of HIV-1 DNA
same,DNA fragmentation in infected treated relative to infected untreated cultures,[2]; at 120 hours,twice
same,DNA fragmentation in infected treated relative to infected untreated cultures,"[2]; at 144 hours, P = 0.001",three times as high
same,"newly synthesized deoxyhypusyl-eIF5A accumulated in HIV-infected treated cells, higher than in uninfected treated cultures",[3]; 200 μM deferiprone,~40%
same,DOHH activity in the primary cells,"[3]; at ≤100 μM deferiprone, infected and uninfected cultures",≥ 90%
same,cellular DOHH activity,"[3]; at ≥200 μM deferiprone, infected and uninfected cultures",≤ 8%
same,HIV-1 inhibition in chronically infected cell lines,[4]; 200 μM deferiprone,near-maximal HIV-1 inhibition
same,"ribosomal presence of gag mRNA, amount of intra- and extracellular p24, budding of viral particles",[4]; treated HIV-infected cells,suppress
